Laboratory results: patent US11420962B2, “Indene derivatives useful in treating pain and inflammation” (TARO PHARMACEUTICALS INC., priority 2018, dated 2022)

Experiments:
[1] = system: Rat DRG; test: Rat dorsal root ganglion excitability response (EFS, Ca2+ transients); type: cell-based; settings: Rattus norvegicus; Table 3; electrical field stimulation, Ca5 indicator; read-out: Scoring (EC50, Rat DRG excitability)
Method: Dorsal root ganglions (DRGs) were dissected from adult rats. The tissue was processed, and cells were seeded into call culture plates (48 center wells of one quadrant in 384-well plates) and cultured for 2 days prior to Electrical field stimulation (EFS). To visualize the neuronal excitability response, intracellular Ca^+2 transients were monitored using the Ca^+2 indicator, Ca5. Ca5 was added to the cultures 1 h prior to EFS. Representative test compounds of the invention (i.e., test compounds) and reference compound, tetracaine, were added in concentration-response format encompassing six concentrations, performed in duplicate. The highest concentration tested was typically 30 μM with 1 in 3 dilutions generating the subsequent concentrations.
Effects on DRG excitability by the test compounds and standard were evaluated using four EFS protocols as disclosed in Table 2.
Experimental results were performed using two separate sets of plates using separate test compound and standard dilutions, to provide n=2. In the first set of experiments, compounds were added 24 h prior to EFS to increase the possibility to also detect more long-term compound effects. In the second set of experiments the compounds were added directly prior to EFS. Excitability response to EFS was analyzed as the average fluorescence ratio (peak/baseline) change per well. All plates were evaluated using high content imaging equipment post-EFS, imaging the Ca5 background staining to detect any possible compound-related toxic effects.
Average response by the standard compound, tetracaine, was 4.05 μM.

[2] = Metabolism by human liver microsomes; type: in vitro ADME; settings: Table 8; 10 µM, in the presence of NADPH, 1 mg/mL protein
Method: Representative compounds of the invention (i.e., test compounds) and the positive control, 7-ethoxycoumarin, were prepared as stock solutions at 10 mM in DMSO and eventually diluted to 10 μM in the test plate, with an appropriate amount of acetonitrle and tris HCl buffer. Final DMSO and acetonitrile concentrations were […] and 0.5% respectively. NADPH was prepared in tris HCl buffer to a stock of 10 mM. A frozen aliquot of live microsomes was retrieved from the freezer (−80° C.) and thawed by placing the tube on wet ice. After thawing, the tubes were gently mixed and the required amount, transferred to tris HCl buffer. Test compounds or positive control were pre-incubated, separately, for 10 minutes, with liver microsomes (1 mg/mL protein), at 37° C., in 100 mM Tris HCl at pH 7.5. After preincubation the reaction was started by adding 1 mM NADPH (pre-equilibrated to […]) and the reaction allowed to proceed for 60 minutes. At 60 minutes, a 50 μL aliquot was removed and quenched with 200 uL of acetonitrile containing a mixture of internal standards (Tolbutamide (500 ng/mL) and Telmistartan (500 ng/mL)) and vortexed then centrifuged at 4000 rmp for 10 minutes (Eppendorf 5810R). The supernatant was transferred to a 96 well plate for LC-MS/MS analysis.
An LC-MS/MS method was devised for the test compounds and the control, using a AB Sciex API 4000 system coupled to a NEXAR™ UHPLC (Shimadzu) system. Analytes were separated on a Phenomenex Kinetex C18 column (50×2.1 mm, 5 μm) using a gradient that was appropriate for each compound, at a flow rate of 1 ml/minute, utilizing a mobile phase of 0.1% formic acid in MILLI-Q™ water (A) and 0.1% formic acid in acetonitrile (B). The MS instrument was operated in positive mode (ESI+)/negative (ESI−). The multiple reaction monitoring (MRM) transition for test and control compounds was used for the LC-MS/MS analysis. MRM transitions for control compound 7-ethoxycoumarinm were Quadropole 1: 191.0, Quadropole 3: 163.0, dwell time: 75 msec, using curtain gas settings of 5 V, ion-spray voltage of 5500 V, temperature of 50° C. and gas settings for nebulizer and auxiliary set to 30 and 40 psi, respectively. The interface heater was kept on. Entrance potential and collision cell exit potential were varied to tune for a specific compound.
Using a suitable LC-MS/MS method, the percentage of drug remaining at 60 minutes ([…]) was assessed by comparing the average analyte to internal standard area ratio at 60 minutes to the average analyte to internal standard area ratio at 0 time control, as a percentage, from a 5 to 10 μL sample injection.
According to the above assay, the representative compounds listed in Table 8 below were active in the Human liver microsome assay at […] and the % of drug remaining after 60 minutes (PDR60), in the presence of NADPH, was assessed by LC-MS/MS. Average PDR60 for the standard compound, 7-ethoxycoumarin was <=65% in the presence of NADPH. Scoring for the test compounds, in the presence of NADPH, was as follows: “A” represents a PDR^60 of 81 to 100%, “B” represents a PDR^60 of 61 to 80%, “C” represents a PDR^60 of 31 to 60% and “D” represents a PDR^60 of 0 to 30%.

Structure (SMILES) | EC50 [1] [µM] | Scoring (% of drug remaining after 60 minutes, PDR60) [2]
C[C@H]1CC[C@H]2[C@H](CN)[C@@H]([C@@]3(C)Cc4cn(C(C)(C)C)nc4C[C@@H]3CO)CC[C@]12C [Ia-41, ((5R,6S)-5-((1S,3aS,4S,5S,7aR)-4-(aminomethyl)-1,7a-dimethyloctahydro-1H-inden-5-yl)-2-(tert-butyl)-5-methyl-4,5,6,7-tetrahydro-2H-indazol-6-yl)methanol] | < 2 | A (a PDR^60 of 81 to 100%)
C=C1CC[C@H]2[C@H](CN)[C@@H]([C@@]3(C)Cc4cn(Cc5ccccc5)nc4C[C@@H]3CO)CC[C@]12C [Ia-19, ((5R,6S)-5-((3aS,4R,5S,7aS)-4-(aminomethyl)-7a-methyl-1-methyleneoctahydro-1H-inden-5-yl)-2-benzyl-5-methyl-4,5,6,7-tetrahydro-2H-indazol-6-yl)methanol] | 2 to 6 | B (a PDR^60 of 61 to 80%)
C=C1CC[C@H]2[C@H](CN)[C@@H]([C@@]3(C)Cc4cn[nH]c4C[C@@H]3CN3CCOCC3)CC[C@]12C [Ia-76, ((3aS,4R,5S,7aS)-7a-methyl-5-((5R,6S)-5-methyl-6-(morpholinomethyl)-4,5,6,7-tetrahydro-1H-indazo1-5-yl)-1-methyleneoctahydro-1H-inden-4-yl)methanamine] | 6 to 15 | D (a PDR^60 of 0 to 30%)
C=C1CC[C@H]2[C@H](CO)[C@@H]([C@@]3(C)Cc4cn[nH]c4C[C@@H]3CN)CC[C@]12C [Ia-82, ((3aS,4R,5S,7aS)-5-((5R,6S)-6-(aminomethyl)-5-methyl-4,5,6,7-tetrahydro-1H-indazol-5-yl)-7a-methyl-1-methyleneoctahydro-1H-inden-4-yl)methanol] | 6 to 15 | B (a PDR^60 of 61 to 80%)
C=C1CC[C@H]2[C@H](CN)[C@@H]([C@@]3(C)Cc4cnn(-c5cccnc5)c4C[C@@H]3CO)CC[C@]12C [Ia-20, ((5R,6S)-5-((3aS,4R,5S,7aS)-4-(aminomethyl)-7a-methyl-1-methyleneoctahydro-1H-inden-5-yl)-5-methyl-1-(pyridin-3-yl)-4,5,6,7-tetrahydro-1H-indazol-6-yl)methanol] | 6 to 15 | D (a PDR^60 of 0 to 30%)
C=C1CC[C@H]2[C@H](CN3CCCCC3)[C@@H]([C@@]3(C)Cc4cn[nH]c4C[C@@H]3CO)CC[C@]12C [Ia-47, ((5R,6S)-5-methyl-5-((3aS,4R,5S,7aS)-7a-methyl-1-methylene-4-(piperidin-1-ylmethyl)octahydro-1H-inden-5-yl)-4,5,6,7-tetrahydro-1H-indazol-6-yl)methanol] | 6 to 15 | D (a PDR^60 of 0 to 30%)
C=C1CC[C@H]2[C@H](CN)[C@@H]([C@@]3(C)Cc4cncnc4C[C@@H]3CO)CC[C@]12C [Ic-3, ((6R,7S)-6-((3aS,4R,5S,7aS)-4-(aminomethyl)-7a-methyl-1-methyleneoctahydro-1H-inden-5-yl)-6-methyl-5,6,7,8-tetrahydroquinazolin-7-yl)methanol] | > 15 | A (a PDR^60 of 81 to 100%)
C=C1CC[C@H]2[C@H](CN)[C@@H]([C@@]3(C)Cc4nccnc4C[C@@H]3CO)CC[C@]12C [Ib-2, ((6S,7R)-7-((3aS,4R,5S,7aS)-4-(aminomethyl)-7a-methyl-1-methyleneoctahydro-1H-inden-5-yl)-7-methyl-5,6,7,8-tetrahydroquinoxalin-6-yl)methanol] | > 15 | B (a PDR^60 of 61 to 80%)
C=C1CC[C@H]2[C@H](CN)[C@@H]([C@@]3(C)Cc4cnn(CC(C)(C)C)c4C[C@@H]3CO)CC[C@]12C [Ia-22, ((5R,6S)-5-((3aS,4R,5S,7aS)-4-(aminomethyl)-7a-methyl-1-methyleneoctahydro-1H-inden-5-yl)-5-methyl-1-neopentyl-4,5,6,7-tetrahydro-1H-indazol-6-yl)methanol] | 2 to 6 | D (a PDR^60 of 0 to 30%)
C=C1CC[C@H]2[C@H](CN)[C@@H]([C@@]3(C)Cc4cnn(C(C)(C)C)c4C[C@@H]3CO)CC[C@]12C [Ia-12, ((5R,6S)-5-((3aS,4R,5S,7aS)-4-(aminomethyl)-7a-methyl-1-methyleneoctahydro-1H-inden-5-yl)-1-(tert-butyl)-5-methyl-4,5,6,7-tetrahydro-1H-indazol-6-yl)methanol] | 2 to 6 | D (a PDR^60 of 0 to 30%)
C=C1CC[C@H]2[C@H](CO)[C@@H]([C@@]3(C)Cc4cn[nH]c4C[C@@H]3CN3CCOCC3)CC[C@]12C [Ia-72, ((3aS,4R,5S,7aS)-7a-methyl-5-((5R,6S)-5-methyl-6-(morpholinomethyl)-4,5,6,7-tetrahydro-1H-indazol-5-yl)-1-methyleneoctahydro-1H-inden-4-yl)methanol] | > 15 | D (a PDR^60 of 0 to 30%)
C=C1CC[C@H]2[C@H](CN)[C@@H]([C@@]3(C)Cc4cn(-c5ccccn5)nc4C[C@@H]3CO)CC[C@]12C [Ia-11, ((5R,6S)-5-((3aS,4R,5S,7aS)-4-(aminomethyl)-7a-methyl-1-methyleneoctahydro-1H-inden-5-yl)-5-methyl-2-(pyridin-2-yl)-4,5,6,7-tetrahydro-2H-indazol-6-yl)methanol] | 2 to 6 | B (a PDR^60 of 61 to 80%)
CC1(C)CCC2=C1CC[C@H]([C@@]1(C)Cc3cn[nH]c3C[C@@H]1CO)[C@H]2CN [Ia-2, ((5R,6S)-5-((4R,5S)-4-(aminomethyl)-1,1-dimethyl-2,3,4,5,6,7-hexahydro-1H-inden-5-yl)-5-methyl-4,5,6,7-tetrahydro-1H-indazol-6-yl)methanol] | > 15 | B (a PDR^60 of 61 to 80%)
C=C1CC[C@H]2[C@H](CN)[C@@H]([C@@]3(C)Cc4cnc(N)nc4C[C@@H]3CO)CC[C@]12C [Ic-1, ((6R,7S)-2-amino-6-((3aS,4R,5S,7aS)-4-(aminomethyl)-7a-methyl-1-methyleneoctahydro-1H-inden-5-yl)-6-methyl-5,6,7,8-tetrahydroquinazolin-7-yl)methanol] | > 15 | A (a PDR^60 of 81 to 100%)
C=C1CC[C@H]2[C@H](CN)[C@@H]([C@@]3(C)Cc4cn(C(C)(C)C)nc4C[C@@H]3CO)CC[C@]12C [Ia-13, ((5R,6S)-5-((3aS,4R,5S,7aS)-4-(aminomethyl)-7a-methyl-1-methyleneoctahydro-1H-inden-5-yl)-2-(tert-butyl)-5-methyl-4,5,6,7-tetrahydro-2H-indazol-6-yl)methanol] | 2 to 6 | A (a PDR^60 of 81 to 100%)
